Experimental data: paper PMC3566223 (Cancer prevention research (Philadelphia, Pa.), 2012)
One block for each compound: values may come before it.

What was measured:
[1] = Curcuminoid levels in colonic mucosa biopsies; assay type: in vivo, human; details: for Mucosal level, mean concentration ± SEM, unwashed, surgical biopsies / Mucosal level, mean concentration ± SEM, washed, surgical biopsies / Mucosal level, mean concentration ± SEM, unwashed, endoscopy biopsies / Mucosal level, mean concentration ± SEM, washed, endoscopy biopsies: patients, oral Curcumin C3 complex 2.35 g once daily 14 days; for Mucosal level, mean concentration ± SEM, unwashed, surgical biopsies / Mucosal level, mean concentration ± SEM, washed, surgical biopsies: n=5; for Mucosal level, mean concentration ± SEM, unwashed, endoscopy biopsies / Mucosal level, mean concentration ± SEM, washed, endoscopy biopsies: n=30
[2] = Curcuminoid levels in 24 h urine collection; assay type: in vivo, human; details: 24 h urine between last two doses
[3] = Pre- and post-trial self-reported questionnaire; assay type: in vivo, human; details: 24 participants completing the 2 week course; period of administration
[4] = Adverse event monitoring; assay type: in vivo, human
[5] = Curcuminoid levels in plasma; assay type: in vivo, human; details: of 24 participants
[6] = cited from earlier work
[7] = system: Apc^Min mouse model of inherited colorectal cancer; details: dietary curcumin; cited from earlier work
[8] = one participant, right hemi-colectomy, no bowel preparation of biopsied area
[9] = AEs possibly or probably attributable

Detectable in mucosal samples (number of biopsies) ([1]; of 35 mucosal samples, oral Curcumin C3 complex 2.35 g daily 14 days): 27 out of 35 | Mucosal level, mean concentration ± SEM, unwashed, surgical biopsies [1]: 10.42 ± 6.52 µg/g | Mucosal level, mean concentration ± SEM, washed, surgical biopsies [1]: 1.27 ± 0.42 µg/g | Mucosal level, mean concentration ± SEM, unwashed, endoscopy biopsies [1]: 6.33 ± 3.75 µg/g | Mucosal level, mean concentration ± SEM, washed, endoscopy biopsies [1]: 4.03 ± 1.69 µg/g
Structure (SMILES): COc1cc(/C=C/C(=O)CC(=O)/C=C/c2ccc(O)cc2)ccc1O [Desmethoxycurcumin, desmethoxycurcumin]

Surface curcumin level, single participant [1, 8]: 551.1 µg/g | Tissue curcumin level, single participant [1, 8]: 228.3 µg/g | Mean pre-wash curcumin level, left-sided paired endoscopic biopsies ([1]; oral Curcumin C3 complex 2.35 g daily 14 days, paired left-sided, n=12 pairs): 9.0 µg/g | Mean pre-wash curcumin level, right-sided paired endoscopic biopsies ([1]; oral Curcumin C3 complex 2.35 g daily 14 days, paired right-sided, n=12 pairs): 35.4 µg/g | Decrease in tissue curcumin after consecutive washes ([1]; paired right-sided biopsy samples): 74% | Mucosal level, mean concentration ± SEM, unwashed, surgical biopsies [1]: 75.32 ± 39.71 µg/g | Mucosal level, mean concentration ± SEM, washed, surgical biopsies [1]: 12.50 ± 3.07 µg/g | Mucosal level, mean concentration ± SEM, unwashed, endoscopy biopsies [1]: 42.31 ± 23.68 µg/g | Mucosal level, mean concentration ± SEM, washed, endoscopy biopsies [1]: 19.91 ± 7.87 µg/g | Persistence of high curcumin levels in mucosa post-administration ([1]; time after last dose at which mucosa was biopsied): up to 40 h | Urine level, mean [2]: 27.0 ng/mL | Urine curcumin level, range ([2]; 12 participants with quantifiable levels): 0.67 to 503.3 ng/mL | Experienced abdominal pain, post-trial responses [3]: 21 % participants | Experienced bowel incontinence, post-trial responses [3]: 12 % participants | Experienced constipation, post-trial responses [3]: 13 % participants | Experienced diarrhoea, post-trial responses [3]: 38 % participants | Quantifiable in plasma (number of participants) [5]: 4
Structure (SMILES): COc1cc(/C=C/C(=O)CC(=O)/C=C/c2ccc(O)c(OC)c2)ccc1O [Curcumin, curcumin]
Total gastrointestinal events, number of patients ([4]; 26 patients commenced curcumin): 6 | Abdominal pain, number of events [4, 9]: 3 | Bloating, number of events [4, 9]: 1 | Diarrhoea, number of events [4, 9]: 3 | Dyspepsia, number of events [4, 9]: 1 | Flatulence, number of events [4, 9]: 1 | Nausea, number of events [4, 9]: 2 | Vomiting, number of events [4, 9]: 2 | Total gastrointestinal events, number of events ([4]; AEs possibly or probably attributable, Curcumin C3 complex 2.35 g daily 14 days): 13 | Serious adverse events (SAEs) attributable to curcumin ([4]; Curcumin C3 complex 2.35 g daily 14 days): no serious adverse events | Abdominal pain, grade ([4]; NCI-CTC v3.0 grade): 1,2 | Bloating, grade ([4]; NCI-CTC v3.0 grade): 2 | Diarrhoea, grade ([4]; NCI-CTC v3.0 grade): 1 | Dyspepsia, grade ([4]; NCI-CTC v3.0 grade): 1 | Flatulence, grade ([4]; NCI-CTC v3.0 grade): 1 | Nausea, grade ([4]; NCI-CTC v3.0 grade): 1,2 | Total gastrointestinal events, grade ([4]; NCI-CTC v3.0 grade): 1 - 2 | Vomiting, grade ([4]; NCI-CTC v3.0 grade): 1,2 | Abdominal pain, number of patients ([4]; in vivo): 3 | Bloating, number of patients ([4]; in vivo): 1 | Diarrhoea, number of patients ([4]; in vivo): 3 | Dyspepsia, number of patients ([4]; in vivo): 1 | Flatulence, number of patients ([4]; in vivo): 1 | Nausea, number of patients ([4]; in vivo): 2 | Vomiting, number of patients ([4]; in vivo): 2 | Lipophilicity [6]: highly lipophilic | Reduction of adenoma formation [7]: 39-64%
